pIC50: −log10 of the molar value. Where two headings read alike, the source gives them in different places.
Key:
Type in all cases: biochemical
FGFR3 = molecular target: T1, FGFR3 (Homo sapiens, UniProt P22607); assay: FGFR3 kinase activity inhibition assay (LanthaScreen TR-FRET); settings: for IC50: FGFR3 kinase, TR-FRET, read-out: IC50 (nM) FGFR3; for Selectivity (X) FGFR1/FGFR3: ratio of IC50 FGFR1/FGFR3, selectivity towards FGFR3; for Selectivity (X) FGFR2/FGFR3: ratio of IC50 FGFR2/FGFR3, selectivity towards FGFR3
T1 construct: FGFR3's cytoplasmic domain [436-806 (terminal) amino acids]; purchased Carna 08-135
Outline: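 Read-out is TR-FRET, with the 520 nm/495 nm emission ratio normalised to DMSO (max) and enzyme-free (min) controls. Enzyme was the FGFR3 cytoplasmic domain, residues 436-806. EDTA (10 mM) stopped the reaction, followed by 60 min at 22 °C before reading.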

FGFR2 = molecular target: T2, FGFR2 (Homo sapiens, UniProt P21802); assay: FGFR2 kinase activity inhibition assay (LanthaScreen TR-FRET); settings: for IC50: FGFR2 kinase, TR-FRET, read-out: IC50 (nM) FGFR2
T2 construct: FGFR2's cytoplasmic domain [399-821 (terminal) amino acids]; purchased Carna 08-134
Experimental: FGFR1 kinase activity was measured using Invitrogen LanthaScreen™ assay technology, which utilized fluorescently-labeled peptides and terbium-labeled antibodies to directly measure an amount of the phosphorylated substrate through time-resolved fluorescence energy transfer (TR-FRET). • ① The test compounds were diluted: starting from a concentration of 1 µM, with a buffer solution in a three-fold serial dilution, the buffer solution being composed of 50 mM HEPES, 10 mM MgCl2, 0.01% TritonX-100, 0.01% BSA, 4 mM DTT (pH 7.5), and 1% DMSO; • ② 0.01 nM recombinant human GST fusion protein FGFR1's cytoplasmic domain [398-822 (terminal) amino acids] (Carna: 08-133) was formulated into a 2 × solution, mixed well with the test compounds, and incubated at 23°C for 10 minutes; • ③ 28 nM Fluorescein-Poly GT peptide substrate (Life Technologies: PV3611) and 28 µM ATP were formulated into a 2 × solution, mixed well with the test compounds and enzyme in ②, and incubated at 23°C for 30 minutes; • ④ 10 µL of 2nM Tb-PY20 antibody (Life Technologies: PV3552) and 10 mM EDTA were added to quench the kinase reaction, and incubated at 22°C for 60 minutes. • ⑤ The reaction was measured using a PerkinElmer EnVision multimode plate reader through TR-FRET dual wavelength detection. • 1. The RFU values were copied from the Envision program. • 2. The ratio of RFU 520nm/RFU 495nm was calculated. • 3. The value of the ratio was converted to a percentage inhibition value. % Inhibition = (max-data)/(max-min) × 100 [formula]
"Min" represents the ratio of the control without enzyme, "max" represents the ratio of the DMSO control, and "data" represents the ratio of the compounds in wells with different concentrations.
"Top" refers to the maximum response, "Bottom" refers to the minimum response, and "HillSlope" refers to the slope of the curve.
According to the same method as that in the FGFR1 kinase activity inhibition assay, the inhibitory activities against FGFR2, FGFR3 and FGFR4 were tested using FGFR2's cytoplasmic domain [399-821 (terminal) amino acids] (Carna: 08-134), FGFR3's cytoplasmic domain [436-806 (terminal) amino acids] (Carna: 08-135) and FGFR4's cytoplasmic domain [460-802 (terminal) amino acids] (Carna: 08-136), respectively. […]

FGFR1 = molecular target: T3, FGFR1 (Homo sapiens, UniProt P11362); assay: FGFR1 kinase activity inhibition assay (LanthaScreen TR-FRET); settings: for IC50: FGFR1 kinase, TR-FRET, read-out: IC50 (nM) FGFR1
T3 construct: cytoplasmic domain [398-822 (terminal) amino acids]; purchased Carna 08-133
Outline: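 Emission ratio 520 nm/495 nm by TR-FRET after stopping reaction with 10 mM EDTA and 60 min incubation at 22°C. Inhibition normalized between no-enzyme (min) and DMSO (max) controls, then fitted to a four-parameter curve (Top, Bottom, HillSlope).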

T2 sequence (P21802 399-821): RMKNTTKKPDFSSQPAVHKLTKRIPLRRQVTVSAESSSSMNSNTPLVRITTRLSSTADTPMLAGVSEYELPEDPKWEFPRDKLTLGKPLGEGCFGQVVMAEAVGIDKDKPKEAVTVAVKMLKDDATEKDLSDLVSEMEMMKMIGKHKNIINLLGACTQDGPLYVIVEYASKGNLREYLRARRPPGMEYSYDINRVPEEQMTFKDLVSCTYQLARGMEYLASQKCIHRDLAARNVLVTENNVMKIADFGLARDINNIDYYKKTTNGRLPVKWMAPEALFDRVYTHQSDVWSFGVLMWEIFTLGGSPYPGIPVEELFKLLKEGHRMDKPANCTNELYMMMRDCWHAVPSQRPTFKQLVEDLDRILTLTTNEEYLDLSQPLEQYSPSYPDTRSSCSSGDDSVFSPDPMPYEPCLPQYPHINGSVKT
T1 sequence (P22607 436-806): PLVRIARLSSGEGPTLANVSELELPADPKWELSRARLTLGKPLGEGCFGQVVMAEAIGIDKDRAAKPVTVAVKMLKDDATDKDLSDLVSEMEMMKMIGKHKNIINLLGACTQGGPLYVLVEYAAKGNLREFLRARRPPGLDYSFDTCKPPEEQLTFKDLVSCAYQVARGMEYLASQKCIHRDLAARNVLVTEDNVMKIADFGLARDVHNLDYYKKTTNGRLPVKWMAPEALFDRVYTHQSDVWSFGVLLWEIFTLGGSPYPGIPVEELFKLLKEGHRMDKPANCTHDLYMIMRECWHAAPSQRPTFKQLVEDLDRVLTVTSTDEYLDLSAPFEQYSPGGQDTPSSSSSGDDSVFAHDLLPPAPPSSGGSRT
T3 sequence (P11362 398-822): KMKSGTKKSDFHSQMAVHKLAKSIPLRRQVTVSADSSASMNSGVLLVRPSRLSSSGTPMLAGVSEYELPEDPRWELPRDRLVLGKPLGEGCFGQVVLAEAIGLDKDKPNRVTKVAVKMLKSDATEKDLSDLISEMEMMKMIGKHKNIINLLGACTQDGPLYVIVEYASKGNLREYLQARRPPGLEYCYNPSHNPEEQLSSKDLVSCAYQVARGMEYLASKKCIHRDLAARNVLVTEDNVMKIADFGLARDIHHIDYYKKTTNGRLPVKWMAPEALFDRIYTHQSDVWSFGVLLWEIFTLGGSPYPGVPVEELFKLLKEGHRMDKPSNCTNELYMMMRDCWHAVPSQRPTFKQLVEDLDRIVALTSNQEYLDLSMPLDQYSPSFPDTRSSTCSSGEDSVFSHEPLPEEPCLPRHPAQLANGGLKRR

| SMILES | IC50 (FGFR3) | Selectivity (X) FGFR1/FGFR3 (FGFR3) | Selectivity (X) FGFR2/FGFR3 (FGFR3) | IC50 (FGFR2) | IC50 (FGFR1) | pIC50 (FGFR3) | pIC50 (FGFR2) | pIC50 (FGFR1) |
| --- | --- | --- | --- | --- | --- | --- | --- | --- |
| C[C@@H](Oc1ccc2[nH]nc(-c3cnn(CCO)c3)c2n1)c1c(Cl)cncc1Cl [Example 39, (R)-2-(4-(5-(1-(3,5-dichloropyridin-4-yl)ethoxy)-1H-pyrazolo[4,3-b]pyridin-3-yl)-1H-pyrazol-1-yl)ethan-1-ol] | 1 to 10 nM | A (A represents 1 ≤ multiple X<20) | A (A represents 1 ≤ multiple X<20) | 1 to 10 nM | 10 to 100 nM |  |  |  |
| CC(Oc1ccc2[nH]nc(-c3cnn(C4CCN(S(C)(=O)=O)CC4)c3)c2c1)c1cccc2nccnc12 (stereo not shown) [Example 163, 5-(1-((3-(1-(1-(methylsulfonyl)piperidin-4-yl)-1H-pyrazol-4-yl)-1-indazol-5-yl)oxy)ethyl)quinoxaline] |  | A (A represents 1 ≤ multiple X<20) | A (A represents 1 ≤ multiple X<20) |  |  | 8.00 to 9.00 | 7.00 to 8.00 | 7.00 to 8.00 |
| CC(Oc1ccc2[nH]nc(-c3cnn(C)c3)c2c1)c1cc(C#N)cc2ncccc12 (stereo not shown) [Example 159, 5-(1-((3-(1-methyl-1H-pyrazol-4-yl)-1H-indazol-5-yl)oxy)ethyl)qu inoline-7-carbonitrile] | 1 to 10 nM | B (B represents 20 ≤ multiple X<50) | A (A represents 1 ≤ multiple X<20) | 10 to 100 nM | > 100 nM |  |  |  |
| C[C@@H](Oc1ccc2[nH]nc(-c3cnn(C4CCN(C(=O)N(C)C)CC4)c3)c2n1)c1c(Cl)cncc1Cl [Example 36, (R)-4-(4-(5-(1-(3,5-dichloropyridin-4-yl)ethoxy)-1H-pyrazolo[4,3-b]pyridin-3-yl)-1H-pyrazol-1-yl)-N,N-dimethylpiperidine-1-carboxamide] |  | A (A represents 1 ≤ multiple X<20) | A (A represents 1 ≤ multiple X<20) |  |  | 8.00 to 9.00 | 7.00 to 8.00 | 7.00 to 8.00 |
| CNCCNC(=O)c1ccc2[nH]nc(-c3cnn(C)c3)c2c1 [Example 65, 3-(1-methyl-1H-pyrazol-4-yl)-N-(2-(methylamino)ethyl)-1H-indazole-5-carboxamide] | 10 to 100 nM | B (B represents 20 ≤ multiple X<50) | C (C represents 50 ≤ multiple X<100) | > 100 nM | > 100 nM |  |  |  |
| COCCn1cc(-c2n[nH]c3ccc(O[C@H](C)c4c(Cl)cncc4Cl)nc23)cn1 [Example 40, (R)-5-(1-(3,5-dichloropyridin-4-yl)ethoxy)-3-(1-(2-methoxyethyl)-1H-pyrazol-4-yl)-1H-pyrazolo[4,3-b]pyridine] |  | A (A represents 1 ≤ multiple X<20) |  |  |  | 8.00 to 9.00 |  | 7.00 to 8.00 |
| Cc1c(-c2n[nH]c3ccc(O[C@H](C)c4c(Cl)cncc4Cl)nc23)cnn1C [Example 30, (R)-5-(1-(3,5-dichloropyridin-4-yl)ethoxy)-3-(1,5-dimethyl-1H-pyrazol-4-yl)-1H-pyrazolo[4,3-b]pyridine] |  | A (A represents 1 ≤ multiple X<20) |  |  |  | 7.00 to 8.00 |  | 7.00 to 8.00 |
| Cc1cc2nccnc2c(C(C)Oc2cc(F)c3[nH]nc(-c4cnn(C)c4)c3c2)n1 (stereo not shown) [Example 225, 5-(1-((7-fluoro-3-(1-methyl-1H-pyrazol-4-yl)-1H-indazol-5-yl)oxy)ethyl)-7-methylpyridino[3,4-b]pyrazine] | < 1 nM | A (A represents 1 ≤ multiple X<20) |  |  | 1 to 10 nM |  |  |  |
| Cc1ccc2nccnc2c1C(C)Oc1ccc2[nH]nc(-c3cnn(C)c3)c2c1 (stereo not shown) [Example 112] | < 1 nM | A (A represents 1 ≤ multiple X<20) |  |  | 10 to 100 nM |  |  |  |
| CC(Oc1ccc2[nH]nc(-c3cnn(C4CN(C(=O)N(C)C)C4)c3)c2c1)c1cccc2nccnc12 (stereo not shown) [Example 178, N,N-dimethyl-3-(4-(5-(1-(quinoxalin-5-yl)ethoxy)-1H-indazol-3-yl)-1H-pyrazol-1-yl)azetidine-1-carboxamide] | < 1 nM | B (B represents 20 ≤ multiple X<50) |  |  | 1 to 10 nM |  |  |  |

Now from value to molecule, other results behind:

| IC50 (FGFR3) | Selectivity (X) FGFR1/FGFR3 (FGFR3) | Selectivity (X) FGFR2/FGFR3 (FGFR3) | IC50 (FGFR2) | IC50 (FGFR1) | SMILES | pIC50 (FGFR3) | pIC50 (FGFR2) | pIC50 (FGFR1) |
| --- | --- | --- | --- | --- | --- | --- | --- | --- |
| 1 to 10 nM | A (A represents 1 ≤ multiple X<20) | A (A represents 1 ≤ multiple X<20) | 10 to 100 nM | 10 to 100 nM | C[C@@H](Oc1ccc2[nH]nc(-c3cnn(C4CC4)c3)c2n1)c1c(Cl)cncc1Cl [Example 48, (R)-3-(1-cyclopropyl-1H-pyrazol-4-yl)-5-(1-(3,5-dichloropyridin-4-yl)ethoxy)-1H-pyrazino[4,3-b]pyridine] |  |  |  |
| > 100 nM | A (A represents 1 ≤ multiple X<20) | A (A represents 1 ≤ multiple X<20) | > 100 nM | > 100 nM | C[C@@H](Oc1cc(C(F)(F)F)c2[nH]nc(-c3cnn(C)c3)c2c1)c1c(Cl)cncc1Cl [Example 1, (R)-5-(1-(3,5-dichloropyridin-4-yl)ethoxy)-3-(1-methyl-1H-pyrazol-4-yl)-7-(trifluoromethyl)-1H-indazole] |  |  |  |
| 10 to 100 nM | A (A represents 1 ≤ multiple X<20) | A (A represents 1 ≤ multiple X<20) | 10 to 100 nM | 10 to 100 nM | C[C@@H](Oc1ccc2[nH]nc(-c3cnn(CC(F)F)c3)c2n1)c1c(Cl)cncc1Cl [Example 41, (R)-5-(1-(3,5-dichloropyridin-4-yl)ethoxy)-3-(1-(2,2-difluoroethyl)-1H-pyrazol-4-yl)-1H-pyrazolo[4,3-b]pyridine] |  |  |  |
| < 1 nM | A (A represents 1 ≤ multiple X<20) |  |  | 10 to 100 nM | C[C@@H](Oc1ccc2[nH]nc(-c3cnn(CCC#N)c3)c2n1)c1c(Cl)cncc1Cl [Example 50, (R)-3-(4-(5-(1-(3,5-dichloropyridin-4-yl)ethoxy)-1H-pyrazolo[4,3-b]pyridin-3-yl)-1H-pyrazol-1-yl)propionitrile] |  |  |  |
| < 1 nM | A (A represents 1 ≤ multiple X<20) |  |  | 1 to 10 nM | CNC(C)(C)C(=O)N1CC(n2cc(-c3n[nH]c4ccc(OC(C)c5cccc6nccnc56)cc34)cn2)C1 (stereo not shown) [Example 216, 2-methyl-2-(methylamino)-1-(3-(4-(5-(1-(quinoxalin-5-yl)ethoxy)-1H-indazol-3-yl)-1H-pyrazol-1-yl)azetidin-1-yl)propan-1-one] |  |  |  |
| 1 to 10 nM | A (A represents 1 ≤ multiple X<20) |  |  | 10 to 100 nM | CC(Oc1ccc2[nH]nc(-c3cnn(C)c3)c2c1)c1cccc2ncc(N)cc12 (stereo not shown) [Example 147, 5-(1-((3-(1-methyl-1H-pyrazol-4-yl)-1H-indazol-5-yl)oxy)ethyl)qu inoline-3-amine] |  |  |  |
| < 1 nM | B (B represents 20 ≤ multiple X<50) |  |  | 10 to 100 nM | CC(Oc1ccc2[nH]nc(-c3cnn(C4CN(C(=O)C(C)(C)N)C4)c3)c2c1)c1c(C(F)F)ccc2ncccc12 (stereo not shown) [Example 208, 2-amino-1-(3-(4-(5-(1-(6-(difluoromethyl)quinoline-5-yl)ethoxy)-1H-indazol-3-yl)-1H-pyrazol-1-yl)azetidin-1-yl)-2-methylpropan-1-one] |  |  |  |
| 1 to 10 nM | C (C represents 50 ≤ multiple X<100) |  |  | > 100 nM | CC(Oc1ccc2[nH]nc(-c3cnn(C)c3)c2c1)c1cc(C2CC2)cc2nccnc12 (stereo not shown) [Example 139, 7-cyclopropyl-5-(1-((3-(1-methyl-1H-pyrazol-4-yl)-1H-indazol-5-yl)oxy)ethyl)qu inoxaline] |  |  |  |
